One assay has as its system PC-12 cells. Put plainly: 14C-choline incorporation into phospholipids in PC-12 cells. The assay is classed as cell-based. The procedure:
PC-12 cells were maintained in Dulbecco's modified Eagle's medium (DMEM)+10% fetal bovine serum (FBS). For experiments, cells were grown in quintuplicate collagen-coated 35 millimeter (mm) dishes. Cells were incubated for 18 hours (hr) in serum-free DMEM containing 28 μM choline+/−5 micromolar (μM) of DHA, oleic acid, or palmitic acid. Cells were then labeled for 2.5 hr with 0.5 microcurie (μCi)/ml ^14C-choline in serum-free DMEM containing 10-micromolar (μM) choline.
Cells were homogenized in 100 volumes of ice-cold deionized water using a tissue degrader (Polytron PT 10-35, Kinematica AG, Switzerland); 1 ml of aliquots were then mixed with 3 ml of chloroform+methanol mixture (2:1 v/v) and vortexed vigorously for 30 seconds. After cooling for 1 h on ice, the mixture was mixed sequentially with 3 ml of chloroform+methanol mixture (2:1 v/v) and 1 ml of ice-cold deionized water. The mixture was vortexed vigorously and allowed to stand overnight in the cold room (18 h). The organic (lower) and aqueous (upper) phases of the mixtures were separated by centrifugation (10 min at 4° C.; 1000 g). An aliquot (2 ml) of the upper phase was used for determination of CDP-Choline (see below), and 0.1-0.4 ml aliquots of the lower phase were dried under vacuum for phospholipid analysis. Residues of 0.1 ml aliquots of the lower phase were assayed for total phospholipid content by measuring phosphorus. Residues of 0.4 ml aliquots of the lower phase were reconstituted in 40 μl methanol and subjected to thin-layer chromatography using silica G plates (Adsorbosil Plus-1®, Alltech), and a system consisting of chloroform/ethanol/triethylamine/water (30:34:30:8) as the mobile phase. Phospholipid standards were used to identify the corresponding bands under UV light after the plates were sprayed with 0.1% diphenylhexatriene in petroleum ether. Bands for individual phospholipid classes (PC, PE, SM, PS and PI) were scraped off the plates and extracted into 1 ml of methanol; dried under vacuum; and assayed for phosphorus content. Total phosphorus was determined by comparison with standard curves by using KH2PO4 run with each assay. […] Absorbance was measured spectrophotometrically at 820 nm. Phospholipid mass was determined by multiplying the phosphorus content by 25.
In order to assess the effect of omega-3 fatty acids on phospholipid synthesis, PC-12 cells were incubated with ^14C-labeled choline, following an 18-hour pre-incubation with or without DHA. Incorporation of label into phospholipids was then measured. […]
To further characterize the stimulation of phospholipid synthesis by omega-3 fatty acids, PC-12 cells were pre-treated with different doses of DHA and exposed to labeled choline as described in Example 1, then incorporation of ^14C-label into phospholipids was measured. […]

The test system of a further assay is SHSY-5Y cells. Put plainly: 14C-choline incorporation into phospholipids in SHSY-5Y cells. The format is cell-based, human. The conditions noted are these: 10 μM fatty acid, 18 hr; FIG. 3A. The procedure:
SHSY-5Y cells were grown to near confluency in DMEM+10% FBS in 35 mm dishes. Cells were incubated for 18 hr in serum-free DMEM+1% FBS containing 30 μM choline+/−10 μM of DHA, arachidonic acid, or palmitic acid. Cells were then labeled, and labeled phospholipids were quantified as described for Example 1.
DHA was dissolved in ethanol to a […] concentration and frozen in 10 microliter aliquots at −80° C. For each experiment, one aliquot was diluted in ethanol to 10 micromolar; the volume giving the desired final solution in incubation medium was mixed with an equal volume of BSA solution (1 gm/ml).
The effect of omega-6 fatty acids on phospholipid synthesis was next examined in SHSY-5Y cells, a human neuroblastoma cell line. In this case, phospholipid synthesis was enhanced by arachidonic acid, an omega-6 fatty acid, but not by DHA or palmitic acid (FIG. 3A).
The effect of arachidonic acid on phospholipid synthesis in SHSY-5Y cells was further characterized as described for omega-3 fatty acids and PC-12 cells in Example 2.

Assay [1] relates to brain phospholipid levels. Put plainly: Brain phospholipid levels in rat pups of treated pregnant and nursing mothers. The conditions noted are these: for PC / PE / PI / SM / Total Phospholipids: rat pups, postnatal day 20, mean. The format is in vivo. The procedure: In another study, pregnant rats were allowed to consume ad libitum, for 10 days before parturition and 20 days while nursing, either a choline-containing control diet or this diet supplemented with uridine as UMP; half of each group also received DHA or its diluent daily, by gavage. Pups were then sacrificed and brain slices were examined to determine numbers of hippocampal dendritic spines.
Pregnant and nursing rats were administered DHA and/or uridine as described in Example 9. At 20 days post-birth, rats were sacrificed and brain samples were obtained and assayed for phospholipids. Administration of DHA alone increased brain PC, PI, PE, and sphingomyelin (SM) per cell (DNA) by 36, 166, 38, and 78%, respectively. UMP markedly amplified the effects of DHA to 66, 210, 68, and 99% of control, respectively (Table 8). These increases were greater than those observed in adult animals. Similar results were obtained when normalizing to protein (Table 9). Thus, administration of DHA and/or uridine to pregnant and nursing mothers is able to increase phospholipid levels in the offspring.

Setting [2] is: Table 9, nmol per microgram DNA.

`CCC=CCC=CCC=CCC=CCC=CCC=CCCC(=O)O` [DHA, 4,7,10,13,16,19-docosahexaenoic acid]: the “Phosphatidylcholine (PC) synthesis significantly increased (incorporation of 14C label into PC)” value in the assay on PC-12 cells (5 μM fatty acid, 18 hr pre-incubation, then 14C-choline 2.5 hr, FIG. 1) is reported as “significantly increased”. In the assay on PC-12 cells (different doses of DHA, FIG. 2), the “Augmentation of phospholipid synthesis” value was “dose-dependent”. In the assay on SHSY-5Y cells, the Phospholipid synthesis enhanced result is on record as “not”. Moreover, in assay [1] (Table 8, nmol per mg protein), the PC stood at 115.7 nmol/mg protein, the PE stood at 95.7 nmol/mg protein, the PI worked out at 5.49 nmol/mg protein and the SM came to 7.52 nmol/mg protein. Further, the “Total Phospholipids” value in assay [1] (Table 8, nmol per mg protein) turned out to be 322.8 nmol/mg protein. In assay [1] (setting [2]), this compound had a PC of 12.02 nmol/microgram DNA, a PE of 9.98 nmol/microgram DNA, a PI of 0.571 nmol/microgram DNA and an SM of 0.792 nmol/microgram DNA. For the same compound, in assay [1] (setting [2]), the “Total Phospholipids” value is given as 33.80 nmol/microgram DNA. Besides, in assay [1] (rat pups 20 days post-birth), the “Increase in brain PC per cell (DNA)” value is reported as 36%, the “Increase in brain PE per cell (DNA)” value came out at 38%, the “Increase in brain PI per cell (DNA)” value was found to be 166% and the “Increase in brain sphingomyelin (SM) per cell (DNA)” value is 78%.

Source of the values: patent publication US10736912B2, “Compositions containing PUFA and/or uridine and methods of use thereof” (MASSACHUSETTS INSTITUE OF TECHNOLOGY, priority 2005, dated 2020).
